Legend:
P2X7 [1] = target: T1, P2X7 (Homo sapiens, UniProt Q99572); assay: Pore permeation assay (YO PRO dye uptake, BzATP-induced); format: cell-based; parameters: expressed in transfected cells; host or cells: HEK293; settings: HEK293 transfected with human P2X7 receptor; YO PRO dye 1 uM, BzATP 10 uM; read-out: hP2X7 IC50
T1 sequence (Q99572 1-595): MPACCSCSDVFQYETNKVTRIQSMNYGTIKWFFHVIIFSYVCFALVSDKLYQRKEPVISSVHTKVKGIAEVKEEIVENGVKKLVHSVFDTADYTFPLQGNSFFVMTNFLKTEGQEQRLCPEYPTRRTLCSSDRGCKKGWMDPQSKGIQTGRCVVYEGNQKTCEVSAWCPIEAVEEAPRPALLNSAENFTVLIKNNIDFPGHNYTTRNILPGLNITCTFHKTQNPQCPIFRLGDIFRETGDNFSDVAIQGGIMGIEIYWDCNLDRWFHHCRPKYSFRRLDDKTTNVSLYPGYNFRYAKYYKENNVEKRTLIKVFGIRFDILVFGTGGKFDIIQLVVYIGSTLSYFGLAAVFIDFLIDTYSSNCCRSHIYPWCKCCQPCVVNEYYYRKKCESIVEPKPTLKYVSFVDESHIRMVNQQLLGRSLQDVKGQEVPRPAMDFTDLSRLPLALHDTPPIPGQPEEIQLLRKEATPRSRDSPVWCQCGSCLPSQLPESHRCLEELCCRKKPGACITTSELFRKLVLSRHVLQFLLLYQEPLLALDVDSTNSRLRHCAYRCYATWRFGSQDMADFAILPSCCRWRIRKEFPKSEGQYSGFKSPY
Procedure, shortened: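 HEK293 cells overexpressing human P2X7, plated overnight at 37 C, preincubated 20 min at room temperature with compound (10-point series from 2.5 uM) in HEPES-buffered saline pH 7.4 with 0.1 mM CaCl2. Then 10 uM BzATP plus 1 uM YO PRO added; dye uptake read by fluorescence after 30 min at room temperature.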

P2X7 [2] = target: T1, P2X7; assay: IL-1β release assay in THP-1 cells (sandwich ELISA); format: cell-based; parameters: release of mature IL-1β in the culture medium of THP-1 cells; endogenous in cells; host or cells: THP-1 cells (PMA-differentiated, LPS-primed); settings: PMA, LPS primed, stimulated with 0.8 mM BzATP, mature IL-1β release, read-out: hTHP-1/IL-ib IC50
Procedure, shortened: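 THP-1 cells differentiated with 0.5 μM PMA and primed 4 h with 10 ng/ml LPS at 37° C, then preincubated 20 min with compound. Stimulated with 0.8 mM BzATP for 30 min; mature IL-1β released into the supernatant quantified by sandwich ELISA.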

IC50 (P2X7 [1]) | IC50 (P2X7 [2]) | SMILES
10 to 100 nM | 10 to 100 nM | O=C(NCC1(O)CCCC(F)(F)C1)c1c(Cl)ccc2nc(N3CCC(F)C3)ccc12 (stereo not drawn) [Compound 38, 6-Chloro-2-(3-fluoropyrrolidin-1-yl)-quinoline-5-carboxylic acid (3,3-difluoro-1-hydroxycyclohexylmethyl)-amide]
101 to 500 nM | 101 to 500 nM | O=C(NCC1CCC(F)(F)CC1)c1c(Cl)ccc2nc(N3CC(F)(F)C3)ccc12 [Compound 74, 6-Chloro-2-(3,3-difluoro-azetidin-1-yl)-quinoline-5-carboxylic acid (4,4-difluoro-cyclohexylmethyl)-amide]
10 to 100 nM | 10 to 100 nM | O=C(NCC1CCC(F)(F)CC1)c1c(Cl)ccc2nc(N3CCC(NCCO)C3)ccc12 (stereo not drawn) [Compound 21]
10 to 100 nM | 10 to 100 nM | CN(C)[C@H]1CCN(c2ccc3c(C(=O)NCC4(O)CCC(F)(F)CC4)c(Cl)ccc3n2)C1 [Compound 20, 6-Chloro-2-((S)-3-dimethylamino-pyrrolidin-1-yl)-quinoline-5-carboxylic acid (4,4-difluoro-1-hydroxy-cyclohexylmethyl)-amide]
10 to 100 nM | 101 to 500 nM | CC(=O)NC1CCN(c2ccc3c(C(=O)NCC4CCC(F)(F)CC4)c(Cl)ccc3n2)C1 (stereo not drawn) [Compound 67, 2-(3-Acetylamino-pyrrolidin-1-yl)-6-chloro-quinoline-5-carboxylic acid (4,4-difluoro-cyclohexylmethyl)-amide]
< 10 nM | 10 to 100 nM | NC1CCN(c2ccc3c(C(=O)NCC4CCC(F)(F)CC4)c(Cl)ccc3n2)C1 (stereo not drawn) [Compound 18]
< 10 nM | < 10 nM | C[C@@H]1CCC[C@](O)(CNC(=O)c2c(Cl)ccc3nc(N4CCC(N5CCCC5)C4)ccc23)C1 (stereo partly drawn) [Compound 13, 6-Chloro-2-(3-pyrrolidinyl-pyrrolidin-1-yl)-quinoline-5-carboxylic acid ((1R,3R)-1-hydroxy-3-methyl-cyclohexylmethyl)-amide]
10 to 100 nM | 101 to 500 nM | COCCOc1ccc2c(C(=O)NCC3CCC(F)(F)CC3)c(Cl)ccc2n1 [Compound 70, 6-Chloro-2-(2-methoxy-ethoxy)-quinoline-5-carboxylic acid (4,4-difluoro-cyclohexyl methyl)-amide]
10 to 100 nM | 101 to 500 nM | O=C(NCC1(O)CCCC(F)(F)C1)c1c(Cl)ccc2nc(N3CCC3)ccc12 (stereo not drawn) [Compound 54, 2-(Azetidin-1-yl)-6-chloro-quinoline-5-carboxylic acid (3,3-difluoro-1-hydroxycyclohexylmethyl)-amide]
